One data set has as its system HL-60. Nature of the data set: Growth inhibition of human HL60 cells. The class given is functional, cell-based.
In a further data set the test system is Yellow fever virus. The data set is described as follows: Antiviral activity against Yellow fever virus at 75 uM. It counts as functional, organism-based.
Data set [1] has as its system Human immunodeficiency virus 1. Nature of the data set: Antiviral activity against HIV1 BH10 in human MT4 cells assessed as inhibition of virus-induced cytopathogenicity after 4 days by MTS method. It counts as functional, organism-based, Human immunodeficiency virus type 1 BH10. Particulars: Human immunodeficiency virus 1, MT4, 96 h. On the technique in general: Damage to the host cells serves as the signal in cytopathic effect assays.

In a further data set the test system is CCRF S-180. Nature of the data set: Growth inhibition of mouse S180 cells. The class given is functional, cell-based.
In another data set the test system is L1210. Nature of the data set: Growth inhibition of mouse L1210 cells. It counts as functional, cell-based.
A further data set relates to Dengue virus. Nature of the data set: Antiviral activity against Dengue virus at 75 uM. The class given is functional, organism-based.
Data set [2] can be described thus: Cytotoxicity against human MT4 cells by MTS method. It counts as cell-based.
Another data set relates to West Nile virus. Nature of the data set: Antiviral activity against West Nile virus at 75 uM. The class given is functional, organism-based.

SMILES strings stand for the structures. Activity calls are given as the source filed them. The rule behind the calls is not given here.

As for `OC[C@H]1O[C@@H](c2scc3c(=S)[nH]cnc23)[C@H](O)[C@@H]1O`, the concentration for half-maximal inhibition (IC50) (usually the midpoint of a concentration-inhibition curve) in the data set with HL-60 is 8.17 µM; with CCRF S-180, 29.1 µM; in the data set on L1210 it was 17.6 µM. In addition, the result in the data set on Yellow fever virus, in the data set on Dengue virus and in the data set with West Nile virus was inactive. Moreover, the EC50 – broadly, the concentration at which the effect is half-maximal – in data set [1] was over 2.9 µM. Also, the half-maximal cytotoxic concentration (CC50) (in general, the concentration that lowers cell viability or growth by half) in data set [2] was 2.9 µM.
In the case of `O=c1[nH]cnc2c([C@@H]3O[C@H](CO)[C@@H](O)[C@H]3O)scc12`, the outcome in the data set with Yellow fever virus, in the data set with Dengue virus and in the data set on West Nile virus was inactive. Also, the EC50 in data set [1] is over 100 µM. Moreover, in data set [2], the CC50 is over 100 µM.
As for `OC[C@@H]1C=C[C@H](c2scc3c(O)ncnc23)O1`, the result with Yellow fever virus, in the data set on Dengue virus and in the data set with West Nile virus was inactive. Moreover, the concentration giving a half-maximal response (EC50) in data set [1] is over 100 µM. Moreover, the 50% cytotoxic concentration (CC50) in data set [2] was over 100 µM.
`Nc1ncnc2c([C@H]3CC[C@@H](CO)O3)scc12`: the result with Yellow fever virus, in the data set on Dengue virus and in the data set with West Nile virus was inactive. The EC50 in data set [1] is over 75 µM. In data set [2], the CC50 is over 75 µM.
As for `Cc1cn([C@H]2C[C@H](N=[N+]=[N-])[C@@H](CO)O2)c(=O)[nH]c1=O` [ZIDOVUDINE], the concentration giving a half-maximal response (EC50) in data set [1] was 0.009 µM. The compound also had a 50% cytotoxic concentration (CC50) in data set [2] of 61 µM.
As for `OC[C@@H]1CC[C@H](c2scc3c(O)ncnc23)O1`, the outcome with Yellow fever virus, in the data set on Dengue virus and in the data set with West Nile virus was inactive. The EC50 in data set [1] is over 100 µM. Further, the CC50 in data set [2] is over 100 µM.
For `Nc1ncnc2c([C@H]3C=C[C@@H](CO)O3)scc12`, the result in the data set with Yellow fever virus, in the data set with Dengue virus and in the data set with West Nile virus was inactive. Further, the concentration giving a half-maximal response (EC50) in data set [1] was over 7.3 µM. The compound also returned a CC50 in data set [2] of 7.3 µM.
For `CSc1ncnc2c([C@H]3C=C[C@@H](CO)O3)scc12`, the outcome in the data set with Yellow fever virus, in the data set with Dengue virus and in the data set on West Nile virus was inactive. Also, in data set [1], the EC50 was over 70 µM. The compound further registered a CC50 in data set [2] of 70 µM.

Source of the values: ChEMBL document CHEMBL1153937, “Synthesis and antiviral evaluation of thieno[3,4-d]pyrimidine C-nucleoside analogues of 2',3'-dideoxy- and 2',3'-dideoxy-2',3'-didehydro-adenosine and -inosine” (Bioorg Med Chem, 2009).
